From publication PMC10313921, “A living ex vivo platform for functional, personalized brain cancer diagnosis” (Cell Reports Medicine, 2023)

Columns and labels:
Format in all cases: cell-based, human
[1] = test system: MS21 (low-passage patient-derived GBM line); test: Drug screening of MS21 tumor foci on OBSCs
Outline: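 Luciferase-expressing tumor cells seeded onto organotypic brain slice cultures; one day later treated with six drug concentrations in the medium, or X-irradiation. Bioluminescence read three days after treatment, normalised to day-one fluorescence and untreated controls. Dose-response values by linear interpolation; DSS combines weighted tumor-kill versus slice-toxicity parameters (−100 to 100).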

[2] = test system: 7 cell lines (MB231Br, LN229, U373WT, U373KO, GBM8, MS21, PDIPG); test: Drug screening on OBSCs, summary over the panel of seven tumor lines; settings: number of lines responding
Outline: (§1)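 Drug effects on tumor foci grown on brain slices are quantified by bioluminescence three days after treatment, relative to untreated foci and day-one fluorescence. Efficacy versus slice toxicity is combined into a weighted drug sensitivity score.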

[3] = test system: U373KO (RAD18 knockout of U373WT via CRISPR); test: Drug screening of U373KO tumor foci on OBSCs; settings: U373 KO on OBSCs
Outline: as §1

[4] = test system: PIS patient tumor tissue (intracranial sarcoma); test: Drug screening of uncultured patient tumor tissue PIS on OBSCs; settings: PIS patient tissue; scale -100 to +100
Description: Tumor cells were seeded onto OBSCs 2h after slicing as described above. One day after tumor seeding, six concentrations of each drug were diluted in the media underneath each culture insert, or XRad was applied using an X-Rad 320 Precision X-ray machine (n = 4 tumor foci per concentration; n ≥ 24 tumor foci per drug per cell line). Three days after treatment, the bioluminescence of live tumor cells was measured using an AMI optical imager (Spectral Instruments) and dose-response curves were generated. Tumor survival was normalized to day one tumor fluorescence and compared to an untreated control group.
To engraft onto OBSCs, the cryopreserved/thawed or fresh brain tumor tissue was filtered through a 100 μm cell strainer. Each 50 mg of tissue was transfected with 1mL mcherry-FLuc Lentivirus at 1.5e7 vg/ml with 1μL polybrene for 4h at 37°C. After incubation, the brain tumor tissue was washed with PBS three times to remove the residual virus and reconstituted in PBS with a final volume of 150 μL. Then the tissue solution was engrafted atop OBSCs at ∼0.5 mg tissue in 3 μL of PBS on each hemisphere of the slice. The OBSC engrafted with patient tumor tissue was incubated at 37°C with 5% CO2 and 95% humidity. The BSM was changed after 24h and subsequently every 3 days. Tumor treatment studies were executed as described above for tumor lines. The viability of the patient tissue was measured by an AMI optical imaging system with the addition of 1.5 mg/mL luciferin underneath the culture insert.
Several weighted parameters were factored into an overall drug sensitivity score.
For DSS parameters 1–6, therapeutic windows were calculated by comparing OBSC toxicity and tumor response at the doses where tumor kill passed through the DSS parameter (Table S1 and S3). For DSS parameter 7, the therapeutic window was calculated by comparing the slopes through the tumor EC50 and the OBSC tox EC50. For DSS parameter 8, the therapeutic window was calculated by comparing the areas under tumor kill and OBSC tox curves. Normalized therapeutic window ratios for DSS parameters 1–8 within each drug-tumor-OBSC interaction were calculated in the following manner: within each window, values ranged from +1 to −1, where values approaching +1 signify increasing tumor kill relative to normal tissue toxicity, and values approaching −1 indicate agents where tumors remained highly viable while toxicity to the normal OBSC tissue was elevated. DSS parameters 9–11 were determined based on the behavior of the tumor in response to the drug, as defined above.
All individually weighed parameters were added together to generate the DSS. Overall DSS from 0 to 100 signify increasing efficacy in tumor kill relative to OBSC toxicity, while scores from 0 to −100 describe scenarios in which tumors thrive more effectively than OBSCs for a given treatment. Dose-response values were calculated via linear interpolation of raw data, not from best-fit curve equations.

[5] = test system: GBM8 (high-passage patient-derived GBM line); test: Drug screening of GBM8 tumor foci on OBSCs
Outline: as §1

[6] = test system: MB231Br (breast cancer metastasis to brain); test: Drug screening of MB231Br tumor foci on OBSCs
[7] = test system: PDIPG (low-passage pediatric patient-derived line); test: Drug screening of PDIPG tumor foci on OBSCs
Outline: as §1

[8] = test system: U373WT (wild-type established GBM line); test: Drug screening of U373WT tumor foci on OBSCs
Outline: as §1

[9] = test system: LN229 (established GBM line); test: Drug screening of LN229 tumor foci on OBSCs
Outline: as §1

[10] = area under the dose-response curve, trapezoidal rule
[11] = dose required to kill 10% of the tumor
[12] = dose required to kill 25% of the tumor

Q: `COc1cc([C@@H]2c3cc4c(cc3[C@@H](O[C@@H]3O[C@@H]5CO[C@@H](C)O[C@H]5[C@H](O)[C@H]3O)[C@H]3COC(=O)[C@H]23)OCO4)cc(OC)c1O` [Etoposide] was tested. Which EC50 ([1]; Homo sapiens) did it give?
A: The EC50 was > 10 µM.

Q: What about the EC90 ([1]; Homo sapiens) of the same compound?
A: The EC90 was > 10 µM.

Q: What about the “Killing at highest dose” value ([1]; MS21 on OBSCs) of the same compound?
A: The value was -8.00E-02 fraction of tumor population killed.

Q: And the AUC ([1]; MS21 on OBSCs, area under the dose-response curve, trapezoidal rule)?
A: Its AUC is 1.15E+03.

Q: And the “response / killing over the 7 cell lines” value [2]?
A: The value was 6 of 7.

Q: And the EC50 ([3]; Homo sapiens, U373 MG, dose required to kill 50% of the tumor)?
A: Its EC50 is 37.8 µM.

Q: And the EC90 ([3]; Homo sapiens, U373 MG, dose required to kill 90% of the tumor)?
A: The EC90 was > 10 µM.

Q: What about the IC50 ([3]; Homo sapiens, U373 MG, dosed day 1, survival via bioluminescence day 4, linear interpolation) of the same compound?
A: Its IC50 is 38 µM.

Q: And the “Killing at highest dose” value [3]?
A: The value was 6.38E-01 fraction of tumor population killed.

Q: And the AUC [3, 10]?
A: Its AUC is 3.37E+02.

Q: And the EC10 [3, 11]?
A: The EC10 was 2.42 µM.

Q: What about the EC25 [3, 12] of the same compound?
A: Its EC25 is 6.06 µM.

Q: What about the Slope ([3]; slope through the EC50) of the same compound?
A: The Slope was -3.13E-03.

Q: And the “DSS (drug sensitivity score)” value [4]?
A: Its value is 80.

Q: What about the “Killing at highest dose” value ([5]; GBM8 on OBSCs) of the same compound?
A: The value was 1.00E+00 fraction of tumor population killed.

Q: And the AUC ([5]; GBM8 on OBSCs, area under the dose-response curve, trapezoidal rule)?
A: The AUC was 8.40E+00.

Q: And the EC10 ([5]; GBM8 on OBSCs, dose required to kill 10% of the tumor)?
A: Its EC10 is 0.558 µM.

Q: What about the EC25 ([5]; GBM8 on OBSCs, dose required to kill 25% of the tumor) of the same compound?
A: The EC25 was 1.74 µM.

Q: And the EC75 ([5]; GBM8 on OBSCs, dose required to kill 75% of the tumor)?
A: Its EC75 is 7.47 µM.

Q: And the Slope ([5]; GBM8 on OBSCs, slope through the EC50)?
A: Its Slope is -8.73E-02.

Q: What about the EC50 ([5]; Homo sapiens) of the same compound?
A: Its EC50 is 4.6 µM.

Q: What about the EC90 ([5]; Homo sapiens) of the same compound?
A: The EC90 was 9.19 µM.

Q: What about the IC50 ([5]; Homo sapiens) of the same compound?
A: The IC50 was 5.2 µM.

Q: What about the EC50 ([6]; Homo sapiens, MB231BR on OBSCs, dose required to kill 50% of the tumor) of the same compound?
A: Its EC50 is 100 µM.

Q: What about the EC90 ([6]; Homo sapiens, MB231BR on OBSCs, dose required to kill 90% of the tumor) of the same compound?
A: The EC90 was > 10 µM.

Q: What about the IC50 ([6]; Homo sapiens, MB231Br on OBSCs, dosed day 1, survival via bioluminescence day 4, linear interpolation) of the same compound?
A: Its IC50 is 100 µM.

Q: And the “Killing at highest dose” value ([6]; MB231BR on OBSCs)?
A: The value was 7.20E-01 fraction of tumor population killed.

Q: And the AUC ([6]; MB231BR on OBSCs, area under the dose-response curve, trapezoidal rule)?
A: The AUC was 4.75E+02.

Q: And the EC10 ([6]; MB231BR on OBSCs, dose required to kill 10% of the tumor)?
A: The EC10 was 5.26 µM.

Q: What about the EC25 ([6]; MB231BR on OBSCs, dose required to kill 25% of the tumor) of the same compound?
A: The EC25 was 25 µM.

Q: And the Slope ([6]; MB231BR on OBSCs, slope through the EC50)?
A: The Slope was -3.00E-03.

Q: And the EC50 ([7]; Homo sapiens)?
A: Its EC50 is 574 µM.

Q: And the EC90 ([7]; Homo sapiens)?
A: Its EC90 is > 10 µM.

Q: What about the IC50 ([7]; Homo sapiens) of the same compound?
A: The IC50 was 574 µM.

Q: And the “Killing at highest dose” value ([7]; PDIPG on OBSCs)?
A: The value was 7.50E-01 fraction of tumor population killed.

Q: And the AUC ([7]; PDIPG on OBSCs, area under the dose-response curve, trapezoidal rule)?
A: Its AUC is 6.75E+02.

Q: What about the EC10 ([7]; PDIPG on OBSCs, dose required to kill 10% of the tumor) of the same compound?
A: Its EC10 is 222 µM.

Q: And the EC25 ([7]; PDIPG on OBSCs, dose required to kill 25% of the tumor)?
A: The EC25 was 242 µM.

Q: What about the EC75 ([7]; PDIPG on OBSCs, dose required to kill 75% of the tumor) of the same compound?
A: Its EC75 is 1000 µM.

Q: What about the Slope ([7]; PDIPG on OBSCs, slope through the EC50) of the same compound?
A: The Slope was -5.87E-04.

Q: And the EC50 ([8]; Homo sapiens, U373 MG, U373 WT on OBSCs, dose required to kill 50% of the tumor)?
A: Its EC50 is 260 µM.

Q: What about the EC90 ([8]; Homo sapiens, U373 MG, U373 WT on OBSCs, dose required to kill 90% of the tumor) of the same compound?
A: The EC90 was > 10 µM.

Q: What about the IC50 ([8]; Homo sapiens, U373 MG, U373 WT on OBSCs, dosed day 1, survival via bioluminescence day 4, linear interpolation) of the same compound?
A: The IC50 was 260 µM.

Q: What about the “Killing at highest dose” value ([8]; U373 WT on OBSCs) of the same compound?
A: The value was 3.30E-01 fraction of tumor population killed.

Q: What about the AUC ([8]; U373 WT on OBSCs, area under the dose-response curve, trapezoidal rule) of the same compound?
A: Its AUC is 6.12E+02.

Q: And the EC10 ([8]; U373 WT on OBSCs, dose required to kill 10% of the tumor)?
A: Its EC10 is 25.6 µM.

Q: What about the EC25 ([8]; U373 WT on OBSCs, dose required to kill 25% of the tumor) of the same compound?
A: The EC25 was 65.4 µM.

Q: And the Slope ([8]; U373 WT on OBSCs, slope through the EC50)?
A: Its Slope is -1.26E-04.

Q: What about the “DSS (drug sensitivity score)” value ([8]; U373 WT, scale -100 to +100, tumor kill relative to OBSC toxicity) of the same compound?
A: The value was −13.

Q: And the “Killing at highest dose” value [9]?
A: The value was 4.40E-01 fraction of tumor population killed.

Q: What about the EC50 ([9]; Homo sapiens, LN-229, dose required to kill 50% of the tumor) of the same compound?
A: The EC50 was > 10 µM.

Q: And the EC90 ([9]; Homo sapiens, LN-229, dose required to kill 90% of the tumor)?
A: The EC90 was > 10 µM.

Q: What about the IC50 ([9]; Homo sapiens, LN-229, dosed day 1, survival via bioluminescence day 4, linear interpolation) of the same compound?
A: Its IC50 is > 10 µM.

Q: And the AUC [9, 10]?
A: Its AUC is 6.48E+02.

Q: What about the EC10 [9, 11] of the same compound?
A: The EC10 was 3.7 µM.

Q: And the EC25 [9, 12]?
A: The EC25 was 9.26 µM.

Q: What about the Slope ([9]; slope through the EC50) of the same compound?
A: Its Slope is -1.73E-04.
